Data from patent publication US12559506B2, “Indazole based compounds and associated methods of use” (Arvinas Operations, Inc., priority 2021, dated 2026).
Read-outs that look alike come from different tables or passages of the source.

How the values were obtained:
G2019S LRRK2 = target: T1, G2019S LRRK2 (Homo sapiens, UniProt Q5S007, G2019S); assay: LRRK2 degradation assay, HiBit-tagged G2019S LRRK2 expressed from plasmid in HEK293 cells (Nano-Glo Dual-Luciferase); type: cell-based; settings: 24 hours
T1 construct: expressed in transfected cells; host or cells: HEK293 (ATCC CRL-1573), transient transfection, mammalian expression vector with ubiquitin promoter
Outline: (§1)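 Degradation read as Nano-Glo HiBiT signal over firefly luciferase (cell number/viability) after 24 h compound exposure of transiently transfected HEK293 expressing C-terminally HiBiT-tagged wildtype or G2019S LRRK2. Data as % DMSO; DC50/Dmax fitted per plate, triplicate plates repeated twice.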

wildtype LRRK2 = target: T2, wildtype LRRK2 (Homo sapiens, UniProt Q5S007); assay: LRRK2 degradation assay, HiBit-tagged wildtype LRRK2 expressed from plasmid in HEK293 cells (Nano-Glo Dual-Luciferase); type: cell-based; settings: 24 hours; for Dmax: read-out: **WT Dmax (%); for DC50: read-out: *WT DC50
T2 construct: expressed in transfected cells; host or cells: HEK293 (ATCC CRL-1573), transient transfection, mammalian expression vector with ubiquitin promoter
Outline: as §1

[1] = HiBit-tagged G2019S LRRK2, HEK293 cells
[2] = HiBit-tagged wildtype LRRK2, HEK293 cells
[3] = HiBit-tagged G2019S LRRK2 in HEK293 cells
[4] = HiBit-tagged wildtype LRRK2 in HEK293 cells

T1 sequence (Q5S007 whole entry G2019S): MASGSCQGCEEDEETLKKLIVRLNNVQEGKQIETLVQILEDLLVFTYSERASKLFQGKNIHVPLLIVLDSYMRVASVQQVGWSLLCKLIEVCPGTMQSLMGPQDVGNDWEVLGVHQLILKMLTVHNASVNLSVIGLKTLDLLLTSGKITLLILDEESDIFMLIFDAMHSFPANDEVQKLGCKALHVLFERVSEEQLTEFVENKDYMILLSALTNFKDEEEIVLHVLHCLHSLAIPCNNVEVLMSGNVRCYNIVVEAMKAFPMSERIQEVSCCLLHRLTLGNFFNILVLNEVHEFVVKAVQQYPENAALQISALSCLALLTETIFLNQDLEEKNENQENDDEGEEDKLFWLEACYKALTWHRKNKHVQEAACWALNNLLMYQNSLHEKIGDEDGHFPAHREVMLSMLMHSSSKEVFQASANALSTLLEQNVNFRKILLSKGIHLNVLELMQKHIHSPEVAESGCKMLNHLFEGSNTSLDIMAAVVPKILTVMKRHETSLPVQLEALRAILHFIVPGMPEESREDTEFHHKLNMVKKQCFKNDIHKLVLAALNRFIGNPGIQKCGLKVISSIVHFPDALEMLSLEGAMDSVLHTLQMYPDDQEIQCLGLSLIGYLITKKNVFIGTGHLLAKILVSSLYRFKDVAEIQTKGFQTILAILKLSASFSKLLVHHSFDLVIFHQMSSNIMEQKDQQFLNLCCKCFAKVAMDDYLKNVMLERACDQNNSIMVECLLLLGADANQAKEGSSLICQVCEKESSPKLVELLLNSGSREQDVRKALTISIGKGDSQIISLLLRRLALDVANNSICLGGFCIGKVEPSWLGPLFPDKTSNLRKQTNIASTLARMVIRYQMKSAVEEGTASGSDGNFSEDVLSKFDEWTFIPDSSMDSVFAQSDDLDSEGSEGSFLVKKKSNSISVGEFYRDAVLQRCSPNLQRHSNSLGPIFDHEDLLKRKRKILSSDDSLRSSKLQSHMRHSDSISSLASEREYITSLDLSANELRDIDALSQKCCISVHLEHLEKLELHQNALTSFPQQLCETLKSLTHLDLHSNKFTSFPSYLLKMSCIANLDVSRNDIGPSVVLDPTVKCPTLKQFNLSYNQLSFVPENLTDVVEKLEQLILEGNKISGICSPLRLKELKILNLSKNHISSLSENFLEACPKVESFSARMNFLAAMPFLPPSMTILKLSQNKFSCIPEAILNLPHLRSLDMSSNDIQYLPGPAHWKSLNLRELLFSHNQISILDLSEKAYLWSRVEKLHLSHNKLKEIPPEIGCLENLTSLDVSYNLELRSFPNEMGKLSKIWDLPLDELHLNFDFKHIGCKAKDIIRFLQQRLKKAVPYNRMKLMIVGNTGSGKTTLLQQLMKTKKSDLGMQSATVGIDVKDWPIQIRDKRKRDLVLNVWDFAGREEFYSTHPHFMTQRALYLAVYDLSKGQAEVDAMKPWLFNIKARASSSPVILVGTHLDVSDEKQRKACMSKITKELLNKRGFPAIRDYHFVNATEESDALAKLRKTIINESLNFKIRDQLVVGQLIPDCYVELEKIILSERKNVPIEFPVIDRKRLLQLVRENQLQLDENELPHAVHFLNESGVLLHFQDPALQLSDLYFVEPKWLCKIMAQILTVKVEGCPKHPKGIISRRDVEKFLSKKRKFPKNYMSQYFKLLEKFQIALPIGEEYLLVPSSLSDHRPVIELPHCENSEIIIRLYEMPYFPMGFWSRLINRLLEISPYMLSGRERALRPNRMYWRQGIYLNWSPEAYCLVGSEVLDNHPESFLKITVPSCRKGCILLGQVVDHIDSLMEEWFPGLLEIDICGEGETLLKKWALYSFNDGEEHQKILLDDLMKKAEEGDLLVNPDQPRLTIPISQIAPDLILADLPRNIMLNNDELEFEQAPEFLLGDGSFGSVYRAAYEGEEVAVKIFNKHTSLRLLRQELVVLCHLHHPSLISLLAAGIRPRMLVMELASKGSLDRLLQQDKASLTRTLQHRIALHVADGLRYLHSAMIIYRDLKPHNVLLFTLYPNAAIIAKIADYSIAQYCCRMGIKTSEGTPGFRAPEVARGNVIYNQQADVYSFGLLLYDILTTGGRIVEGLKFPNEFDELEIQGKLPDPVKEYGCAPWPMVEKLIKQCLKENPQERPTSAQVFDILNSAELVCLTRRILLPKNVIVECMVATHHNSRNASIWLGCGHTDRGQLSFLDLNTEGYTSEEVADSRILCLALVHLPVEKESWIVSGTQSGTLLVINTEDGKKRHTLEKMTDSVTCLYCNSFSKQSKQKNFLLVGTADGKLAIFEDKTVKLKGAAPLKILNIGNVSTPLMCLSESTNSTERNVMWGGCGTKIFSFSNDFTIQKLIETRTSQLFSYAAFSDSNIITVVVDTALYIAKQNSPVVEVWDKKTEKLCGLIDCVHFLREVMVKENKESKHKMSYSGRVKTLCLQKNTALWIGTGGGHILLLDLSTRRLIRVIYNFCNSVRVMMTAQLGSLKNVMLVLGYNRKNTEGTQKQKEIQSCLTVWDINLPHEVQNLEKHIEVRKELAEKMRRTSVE
T2 sequence (Q5S007 whole entry): as the sequence (Q5S007 whole entry G2019S) above, with S2019G counted along it

| SMILES | DC50 (G2019S LRRK2; [1]) | Dmax (G2019S LRRK2; [1]) | Dmax (wildtype LRRK2; [2]) | DC50 (wildtype LRRK2; [2]) | DC50 (G2019S LRRK2; [3]) | Dmax (G2019S LRRK2; [3]) | Dmax (wildtype LRRK2; [4]) | DC50 (wildtype LRRK2; [4]) |
| --- | --- | --- | --- | --- | --- | --- | --- | --- |
| CC1(Oc2ccc3[nH]nc(-c4cc(N5CC(CC6CCN(CC7CCN(c8ccc9c(c8)C(=O)N(C8CCC(=O)NC8=O)C9=O)CC7)CC6)C5)ncn4)c3c2)CC1 (stereo not drawn) [Compound 164, 2-(2,6-dioxo-3-piperidyl)-5-[4-[[4-[[1-[6-[5-(1-methylcyclopropoxy)-1H-indazol-3-yl]pyrimidin-4-yl]azetidin-3-yl]methyl]-1-piperidyl]methyl]-1-piperidyl]isoindoline-1,3-dione] | < 10 nM | ≥ 70% | 50 to 70% | < 10 nM | – | – | – | – |
| CC1(Oc2ccc3[nH]nc(-c4cc(N5CCO[C@H](CCN6CCN(CC7CCN(c8ccc9c(c8)C(=O)N(C8CCC(=O)NC8=O)C9=O)CC7)CC6)C5)ncn4)c3c2)CC1 (stereo partly drawn) [Compound 155, 2-(2,6-dioxopiperidin-3-yl)-5-{4-[(4-{2-[(2R)-4-{6-[5-(1-methylcyclopropoxy)-1H-indazol-3-yl]pyrimidin-4-yl}morpholin-2-yl]ethyl}piperazin-1-yl)methyl]piperidin-1-yl}-2,3-dihydro-1H-isoindole-1,3-dione] | < 10 nM | 50 to 70% | 50 to 70% | < 10 nM | – | – | – | – |
| CC1(Oc2ccc3[nH]nc(-c4cc(N5CCC(CN6CC(CN7CCN(c8ccc9c(c8)C(=O)N(C8CCC(=O)NC8=O)C9=O)CC7)C6)CC5)ncn4)c3c2)CC1 (stereo not drawn) [Compound 125, 2-(2,6-dioxo-3-piperidyl)-5-[4-[[11-[[1-[6-[5-(1-methylcyclopropoxy)-1H-indazol-3-yl]pyrimidin-4-yl]-4-piperidyl]methyl]azetidin-3-yl]methyl]piperazin-1-yl]isoindoline-1,3-dione] | – | – | – | – | < 10 nM | 50 to 70% | 50 to 70% | < 10 nM |
| CC1(Oc2ccc3[nH]nc(-c4cc(N5CC(CN6CCN(CC7CCN(c8ccc9c(c8)C(=O)N(C8CCC(=O)NC8=O)C9=O)CC7)CC6)C5)ncn4)c3c2)CC1 (stereo not drawn) [Compound 129, 2-(2,6-dioxo-3-piperidyl)-5-[4-[[4-[[1-[6-[5-(1-methylcyclopropoxy)-1H-indazol-3-yl]pyrimidin-4-yl]azetidin-3-yl]methyl]piperazin-1-yl]methyl]-1-piperidyl]isoindoline-1,3-dione] | – | – | – | – | < 10 nM | ≥ 70% | ≥ 70% | < 10 nM |
| CC1(Oc2ccc3[nH]nc(-c4ccnc(N5CCOC6(CN(CC7CCN(CC8CCN(c9cccc%10c9C(=O)N(C9CCC(=O)NC9=O)C%10=O)CC8)CC7)C6)C5)c4)c3c2)CC1 (stereo not drawn) [Compound 144, 2-(2,6-dioxo-3-piperidyl)-4-[4-[[4-[[8-[4-[5-(1-methylcyclopropoxy)-1H-indazol-3-yl]-2-pyridyl]-5-oxa-2,8-diazaspiro[3.5]nonan-2-yl]methyl]-1-piperidyl]methyl]-1-piperidyl]isoindoline-1,3-dione] | – | – | – | – | 10 to 50 nM | 50 to 70% | 50 to 70% | 10 to 50 nM |
| CC1(Oc2ccc3[nH]nc(-c4ccnc(N5CCC(Cc6ccc(CC7CCN(c8ccc9c(c8)C(=O)N(C8CCC(=O)NC8=O)C9=O)CC7)cc6)CC5)c4)c3c2)CC1 (stereo not drawn) [Compound 173, 2-(2,6-dioxo-3-piperidyl)-5-[4-[[4-[[1-[4-[5-(1-methylcyclopropoxy)-1H-indazol-3-yl]-2-pyridyl]-4-piperidyl]methyl]phenyl]methyl]-1-piperidyl]isoindoline-1,3-dione] | ≥ 100 nM | – | – | ≥ 100 nM | – | – | – | – |
| CC1(Oc2ccc3[nH]nc(-c4ccnc(N5CC(CN6CCN(CC7CCN(c8ccc9c(c8)C(=O)N(C8CCC(=O)NC8=O)C9=O)CC7)CC6)C5)c4)c3c2)CC1 (stereo not drawn) [Compound 128, 2-(2,6-dioxopiperidin-3-yl)-5-[4-({4-[(1-{4-[5-(1-methylcyclopropoxy)-1H-indazol-3-yl]pyridin-2-yl}azetidin-3-yl)methyl]piperazin-1-yl}methyl)piperidin-1-yl]-2,3-dihydro-1H-isoindole-1,3-dione] | – | – | – | – | < 10 nM | 50 to 70% | 50 to 70% | < 10 nM |
| CC1(Oc2ccc3[nH]nc(-c4cc(N5CCO[C@H](CN6CCC(OC7CCN(c8ccc9c(c8)C(=O)N(C8CCC(=O)NC8=O)C9=O)CC7)CC6)C5)ncn4)c3c2)CC1 (stereo partly drawn) [Compound 150, 2-(2,6-dioxopiperidin-3-yl)-5-{4-[(1-{[(2R)-4-{6-[5-(1-methylcyclopropoxy)-1H-indazol-3-yl]pyrimidin-4-yl}morpholin-2-yl]methyl}piperidin-4-yl)oxy]piperidin-1-yl}-2,3-dihydro-1H-isoindole-1,3-dione] | – | – | – | – | < 10 nM | 50 to 70% | 50 to 70% | < 10 nM |
| C[C@H]1CN(c2cc(-c3n[nH]c4ccc(OC5(C)CC5)cc34)ncn2)CCN1CC1CCN(CCCNc2cccc3c2C(=O)N(C2CCC(=O)NC2=O)C3=O)CC1 (stereo partly drawn) [Compound 140, 2-(2,6-dioxo-3-piperidyl)-4-[3-[4-[[(2S)-2-methyl-4-[6-[5-(1-methylcyclopropoxy)-2H-indazol-3-yl]pyrimidin-4-yl]piperazin-1-yl]methyl]-1-piperidyl]propylamino]isoindoline-1,3-dione] | – | – | – | – | < 10 nM | < 50% | < 50% | < 10 nM |
| CC1(Oc2ccc3[nH]nc(-c4cc(N5CCN(C[C@@H]6CCN(CC7CCN(c8ccc9c(c8)C(=O)N(C8CCC(=O)NC8=O)C9=O)CC7)C(=O)C6)CC5)ncn4)c3c2)CC1 (single isomer, unassigned) [Compound 103] | – | – | – | – | < 10 nM | 50 to 70% | 50 to 70% | < 10 nM |
| CC1(Oc2ccc3[nH]nc(-c4ccnc(N5CCC(CN6CCN(CC7CCN(c8ccc9c(c8)C(=O)N(C8CCC(=O)NC8=O)C9=O)CC7)CC6)CC5)c4)c3c2)CC1 (stereo not drawn) [Compound 78, 2-(2,6-dioxo-3-piperidyl)-5-[4-[[4-[[1-[4-[5-(1-methylcyclopropoxy)-1H-indazol-3-yl]-2-pyridyl]-4-piperidyl]methyl]piperazin-1-yl]methyl]-1-piperidyl]isoindoline-1,3-dione] | – | – | – | – | < 10 nM | 50 to 70% | 50 to 70% | < 10 nM |
| CC1(Oc2ccc3n[nH]c(-c4cc(N5CCC(CN6CCN(CC7CCN(c8cccc9c8CN(C8CCC(=O)NC8=O)C9=O)CC7)CC6)CC5)ncn4)c3c2)CC1 (stereo not drawn) [Compound 147, 3-[4-[4-[[4-[[1-[6-[5-(1-methylcyclopropoxy)-2H-indazol-3-yl]pyrimidin-4-yl]-4-piperidyl]methyl]piperazin-1-yl]methyl]-1-piperidyl]-1-oxo-isoindolin-2-yl]piperidine-2,6-dione] | – | – | – | – | < 10 nM | ≥ 70% | ≥ 70% | < 10 nM |
| CC1(Oc2ccc3[nH]nc(-c4cc(N5CCN(C[C@H]6CCN(CC7CCN(c8ccc9c(c8)C(=O)N(C8CCC(=O)NC8=O)C9=O)CC7)C(=O)C6)CC5)ncn4)c3c2)CC1 (single isomer, unassigned) [Compound 104] | – | – | – | – | < 10 nM | < 50% | 50 to 70% | < 10 nM |
| CC1(Oc2ccc3[nH]nc(-c4cc(N5CCO[C@@H](CN6CCC(OC7CCN(c8ccc9c(c8)C(=O)N(C8CCC(=O)NC8=O)C9=O)CC7)CC6)C5)ncn4)c3c2)CC1 (stereo partly drawn) [Compound 149, 2-(2,6-dioxo-3-piperidyl)-5-[4-[[1-[[(2S)-4-[6-[5-(1-methylcyclopropoxy)-1H-indazol-3-yl]pyrimidin-4-yl]morpholin-2-yl]methyl]-4-piperidyl]oxy]-1-piperidyl]isoindoline-1,3-dione] | – | – | – | – | 10 to 50 nM | 50 to 70% | 50 to 70% | 10 to 50 nM |
| CC1(Oc2ccc3[nH]nc(-c4cc(N5CCN(CC67CC(CN8CCN(c9ccc%10c(c9)C(=O)N(C9CCC(=O)NC9=O)C%10=O)CC8)(C6)C7)CC5)ncn4)c3c2)CC1 (stereo not drawn) [Compound 124, 2-(2,6-dioxo-3-piperidyl)-5-[4-[[3-[[4-[6-[5-(1-methylcyclopropoxy)-2H-indazol-3-yl]pyrimidin-4-yl]piperazin-1-yl]methyl]-1-bicyclo[1.1.1]pentanyl]methyl]piperazin-1-yl]isoindoline-1,3-dione] | – | – | – | – | 10 to 50 nM | < 50% | < 50% | < 10 nM |
| CC1(Oc2ccc3[nH]nc(-c4cc(N5CCN(C[C@H]6CC[C@H](CN7CCN(c8ccc9c(c8)C(=O)N(C8CCC(=O)NC8=O)C9=O)CC7)CC6)CC5)ncn4)c3c2)CC1 (stereo partly drawn) [Compound 101, 2-(2,6-dioxo-3-piperidyl)-5-[4-[[4-[[4-[6-[5-(1-methylcyclopropoxy)-1H-indazol-3-yl]pyrimidin-4-yl]piperazin-1-yl]methyl]cyclohexyl]methyl]piperazin-1-yl]isoindoline-1,3-dione] | – | – | – | – | < 10 nM | < 50% | 50 to 70% | 10 to 50 nM |
| CC1(Oc2ccc3[nH]nc(-c4cc(N5CCC(CN6CCN(C(=O)C7CCN(c8ccc9c(c8)C(=O)N(C8CCC(=O)NC8=O)C9=O)CC7)CC6)CC5)ncn4)c3c2)CC1 (stereo not drawn) [Compound 94, 2-(2,6-dioxopiperidin-3-yl)-5-(4-{4-[(1-{6-[5-(1-methylcyclopropoxy)-1H-indazol-3-yl]pyrimidin-4-yl}piperidin-4-yl)methyl]piperazine-1-carbonyl}piperidin-1-yl)-2,3-dihydro-1H-isoindole-1,3-dione] | – | – | – | – | < 10 nM | 50 to 70% | 50 to 70% | < 10 nM |
